The values that follow come from US20120202856A1, “SUBSTITUTED BENZIMDAZOLE DERIVATIVES USEFUL AS TRPM8 RECEPTOR MODULATORS” (priority 2011, published 2012).

Usually IC50 stands for the concentration needed to halve the response being measured.

Several values for one entry are separate records, joined by “and”; a condition that tells them apart may be missing. Equal values may be shown once. Where a name gives a salt, the structure may show the parent alone. Read-outs that look alike come from different tables or passages of the source.

The target in one experiment is T1, canine TRPM8 (Canis lupus familiaris, UniProt Q1A7N1).
T1 construct: expressed in transfected cells
T1 sequence (Q1A7N1 1-1104): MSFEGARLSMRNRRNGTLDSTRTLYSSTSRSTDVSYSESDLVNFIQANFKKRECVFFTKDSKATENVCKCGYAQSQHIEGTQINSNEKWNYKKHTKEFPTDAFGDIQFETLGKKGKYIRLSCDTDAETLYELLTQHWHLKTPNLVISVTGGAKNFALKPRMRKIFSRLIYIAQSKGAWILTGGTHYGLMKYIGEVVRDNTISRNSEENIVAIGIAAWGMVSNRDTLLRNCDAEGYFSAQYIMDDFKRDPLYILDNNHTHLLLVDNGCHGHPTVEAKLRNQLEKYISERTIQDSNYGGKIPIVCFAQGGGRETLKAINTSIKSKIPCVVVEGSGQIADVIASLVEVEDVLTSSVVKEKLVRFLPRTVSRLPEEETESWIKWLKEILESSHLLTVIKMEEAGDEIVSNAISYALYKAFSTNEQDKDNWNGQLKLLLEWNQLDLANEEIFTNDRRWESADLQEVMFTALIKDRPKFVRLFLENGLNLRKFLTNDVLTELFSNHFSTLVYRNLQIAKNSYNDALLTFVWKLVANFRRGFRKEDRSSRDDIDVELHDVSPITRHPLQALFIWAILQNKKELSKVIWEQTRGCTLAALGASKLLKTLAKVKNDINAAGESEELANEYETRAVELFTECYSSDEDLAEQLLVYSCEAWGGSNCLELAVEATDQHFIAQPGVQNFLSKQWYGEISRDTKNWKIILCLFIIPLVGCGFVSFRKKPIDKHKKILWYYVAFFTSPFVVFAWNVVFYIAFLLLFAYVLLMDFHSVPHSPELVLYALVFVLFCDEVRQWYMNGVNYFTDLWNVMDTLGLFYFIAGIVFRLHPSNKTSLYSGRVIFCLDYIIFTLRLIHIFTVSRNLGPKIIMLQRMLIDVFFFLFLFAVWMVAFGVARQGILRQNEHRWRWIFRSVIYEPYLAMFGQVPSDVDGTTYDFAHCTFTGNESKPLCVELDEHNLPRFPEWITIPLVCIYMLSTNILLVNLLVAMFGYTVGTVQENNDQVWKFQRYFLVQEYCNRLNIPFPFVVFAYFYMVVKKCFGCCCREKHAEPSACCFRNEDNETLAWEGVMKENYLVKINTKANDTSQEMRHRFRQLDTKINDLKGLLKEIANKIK
Put plainly: In Vitro Canine TRPM8 Functional Assay (intracellular Ca2+ fluorescence, icilin activation, HEK293 cells). The experiment is classed as cell-based. The conditions noted are these: for IC50: HEK293 cells expressing canine TRPM8, icilin activation, individually measured values (batches/salt forms), read-out: IC50 (nM), in vitro TRP M8 Activity. In short, it runs like this: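 Inhibition of icilin-evoked calcium influx measured by Calcium 3 fluorescence (FLIPR or FDSS) in canine TRPM8 HEK293 cells. After basal subtraction, data expressed as percent of maximum; quadruplicate means fitted by sigmoidal dose–response to give IC50.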

The test system of experiment [1] is icilin-induced “wet-dog” shakes (WDS). The experiment is described as follows: Inhibition of Icilin-Induced “Wet-Dog” Shakes in Rats. In kind it is in vivo, Sprague Dawley rats. The settings on record: po; for inhibition in vivo at 10 mg/kg / inhibition in vivo at 3 mg/kg: read-out: Icilin % Inhibition @1.5 hrs. How it is done:
The test compound was administered in 10% hydroxypropyl-β-cyclodextrin (HP-13-CD), p.o., 60 min before icilin.
% Inhibition=[1−(test compound WDS count/vehicle WDS count)]×100.

[2] abbreviates: rat, p.o., dose 10 mg/kg, 1.5 hrs.
[3] abbreviates: HEK293, 0.2 μM test compound, individually measured values, read-out: % Inh (%) @0.2 μM, in vitro TRP M8 Activity.

As for `Cn1nc(C(C)(C)C)c(Cl)c1-c1nc2cc(-c3ccccc3C(F)(F)F)ccc2[nH]1` [Compound 50, 2-(5-tert-Butyl-4-chloro-2-methyl-2H-pyrazol-3-yl)-5-(2-trifluoromethylphenyl)-1H-benzimidazole sodium salt], the IC50 at canine TRPM8 was 14 nM and 8.2 nM and 2.2 nM. Moreover, the inhibition in vivo at 10 mg/kg in experiment [1] (setting [2]) was 47.4%.

In the case of `CCn1nc(C(C)(C)C)cc1-c1nc2cc(-c3ccccc3C(F)(F)F)ccc2[nH]1` [Compound 44, 2-(5-tert-Butyl-2-ethyl-2H-pyrazol-3-yl)-5-(2-trifluoromethylphenyl)-1H-benzimidazole sodium salt], at canine TRPM8, the IC50 worked out at 15.8 nM. In experiment [1] (Rattus norvegicus, 1.5 h), the inhibition in vivo at 10 mg/kg came out at 30%.

With `Cn1nc(C(C)(C)C)c(Cl)c1-c1nc2cc(-c3ccccc3Cl)ccc2[nH]1` [Compound 89, 2-(5-tert-Butyl-4-chloro-2-methyl-2H-pyrazol-3-yl)-5-(2-chloro-phenyl)-1H-benzimidazole hydrochloride], on canine TRPM8, the IC50 is 3.6 nM and 5.2 nM and 2.4 nM. In addition, the inhibition in vivo at 10 mg/kg in experiment [1] (setting [2]) was found to be 91.5%.

For `Cn1nc(C(C)(C)C)c(C#N)c1-c1nc2cc(-c3ccccc3C(F)(F)F)cc(Cl)c2[nH]1` [Compound 169, 3-tert-Butyl-5-[7-chloro-5-(2-trifluoromethyl-phenyl)-1H-benzimidazol-2-yl]-1-methyl-1H-pyrazole-4-carbonitrile sodium salt], the inhibition at 0.2 µM on canine TRPM8 (setting [3]) is 100%. Moreover, on canine TRPM8, the IC50 came out at 8 nM. For the same molecule, the inhibition in vivo at 3 mg/kg in experiment [1] (rat, p.o., 1.5 hrs) is 34%.

Turning to `Cc1c(C(C)(C)C)nn(C)c1-c1nc2cc(-c3ccccc3C(F)(F)F)ccc2[nH]1` [Compound 76, 2-(5-tert-Butyl-2,4-dimethyl-2H-pyrazol-3-yl)-5-(2-trifluoromethylphenyl)-1H-benzimidazole sodium salt], the IC50 on canine TRPM8 was 6 nM. Besides, the inhibition in vivo at 10 mg/kg in experiment [1] (Rattus norvegicus, 1.5 h) is 98.6%.

For the molecule `Cc1c(C(C)(C)C)nn(C)c1-c1nc2cc(-c3c(F)cccc3F)cc(Cl)c2[nH]1` [Compound 136, 2-(5-tert-Butyl-2,4-dimethyl-2H-pyrazol-3-yl)-7-chloro-5-(2,6-difluoro-phenyl)-1H-benzimidazole hydrochloride], the inhibition at 0.2 µM on canine TRPM8 (setting [3]) is 100%. Further, the IC50 on canine TRPM8 is 8.2 nM and 9 nM. Besides, the inhibition in vivo at 3 mg/kg in experiment [1] (rat, p.o., 1.5 hrs) was 61.6%.

For the molecule `CC(C)c1cc(-c2nc3cc(-c4ccccc4C(F)(F)F)ccc3[nH]2)on1` [Compound 3, 2-(3-Isopropylisoxazol-5-yl)-5-(2-trifluoromethylphenyl)-1H-benzimidazole sodium salt], the IC50 at canine TRPM8 was 22 nM and 24 nM (2×) and 29 nM. In experiment [1] (rat, dose 30 mg/kg, 1.5 hrs), this molecule had an inhibition in vivo at 30 mg/kg of 48.3%.

As to `Cn1nc(C(C)(C)C)c(C#N)c1-c1nc2cc(-c3ccccc3OC(F)(F)F)cc(Cl)c2[nH]1` [Compound 170, 3-tert-Butyl-5-[7-chloro-5-(2-trifluoromethoxy-phenyl)-1H-benzimidazol-2-yl]-1-methyl-1H-pyrazole-4-carbonitrile sodium salt], the inhibition at 0.2 µM on canine TRPM8 (setting [3]) amounted to 100%. The IC50 at canine TRPM8 came to 12.4 nM. Also, the inhibition in vivo at 3 mg/kg in experiment [1] (rat, p.o., 1.5 hrs) was determined as 4.3%.

Consider `CC(C)(C)c1cc(-c2nc3cc(-c4c(F)cccc4OC(F)(F)F)cc(C(F)(F)F)c3[nH]2)on1` [Compound 145, 2-(3-tert-Butyl-isoxazol-5-yl)-5-(2-fluoro-6-trifluoromethoxy-phenyl)-7-trifluoromethyl-1H-benzimidazole sodium salt], for which, on canine TRPM8 (HEK293, read-out: % Inh (%) @0.2 μM, in vitro TRP M8 Activity, 0.2 μM test compound, individually measured values), the inhibition at 0.2 µM was determined as 100%. Besides, the concentration for half-maximal inhibition (IC50) at canine TRPM8 is 3.7 nM and 8.1 nM.

For the molecule `CC(C)(C)c1cc(-c2nc3cc(-c4ccccc4C(F)(F)F)ccc3[nH]2)n(CCO)n1` [Compound 102, 2-{3-tert-Butyl-5-[5-(2-trifluoromethylphenyl)-1H-benzimidazol-2-yl]-pyrazol-1-yl}-ethanol hydrochloride], on canine TRPM8, the IC50 amounted to 54.4 nM.

In the case of `Cc1c(C(C)(C)C)nn(C)c1-c1nc2cc(-c3c(F)cccc3OC(F)(F)F)cc(C(F)(F)F)c2[nH]1` [Compound 123, 2-(5-tert-Butyl-2,4-dimethyl-2H-pyrazol-3-yl)-5-(2-fluoro-6-trifluoromethoxy-phenyl)-7-trifluoromethyl-1H-benzimidazole hydrochloride], the IC50 on canine TRPM8 was 7.9 nM.

As to `Cc1oc(C(C)(C)C)nc1-c1nc2cc(-c3ccccc3C(F)(F)F)cc(C(F)(F)F)c2[nH]1` [Compound 153, 2-(2-tert-Butyl-5-methyl-oxazol-4-yl)-7-trifluoromethyl-5-(2-trifluoromethyl-phenyl)-1H-benzimidazole hydrochloride], the inhibition at 0.2 µM on canine TRPM8 (setting [3]) was 25%.

For `Cn1nc(C(C)(C)C)c(C#N)c1-c1nc2cc(-c3c(F)cccc3F)cc(C(F)(F)F)c2[nH]1` [Compound 151, 3-tert-Butyl-5-[5-(2,6-difluoro-phenyl)-7-trifluoromethyl-1H-benzimidazol-2-yl]-1-methyl-1H-pyrazole-4-carbonitrile sodium salt], the IC50 at canine TRPM8 was 4.2 nM and 6 nM and 3.8 nM.

`CCC(CC)c1cc(-c2nc3ccc(-c4ccccc4OC(F)(F)F)cc3[nH]2)on1` [Compound 27, 2-[3-(1-Ethylpropyl)-isoxazol-5-yl]-6-(2-trifluoromethoxyphenyl)-1H-benzimidazole hydrochloride]: on canine TRPM8, the IC50 was 46 nM.

On to `CC(C)c1cc(-c2nc3cc(-c4cccc(C(F)(F)F)c4)ccc3[nH]2)on1` [Compound 7, 2-(3-Isopropylisoxazol-5-yl)-5-(3-trifluoromethylphenyl)-1H-benzimidazole sodium salt], for which, at canine TRPM8 (setting [3]), the inhibition at 0.2 µM was 10%.

As for `Cc1oc(C(C)(C)C)nc1-c1nc2cc(-c3c(F)cccc3C(F)(F)F)cc(C(F)(F)F)c2[nH]1` [Compound 158, 2-(2-tert-Butyl-5-methyl-oxazol-4-yl)-5-(2-fluoro-6-trifluoromethyl-phenyl)-7-trifluoromethyl-1H-benzimidazole hydrochloride], the inhibition at 0.2 µM on canine TRPM8 (setting [3]) came to 72%.

For the molecule `Cc1c(C(C)(C)C)nn(C)c1-c1nc2cc(-c3ccccc3C(F)(F)F)cc(Cl)c2[nH]1` [Compound 135, 2-(5-tert-Butyl-2,4-dimethyl-2H-pyrazol-3-yl)-7-chloro-5-(2-trifluoromethyl-phenyl)-1H-benzimidazole hydrochloride], the inhibition at 0.2 µM at canine TRPM8 (setting [3]) was determined as 99%. Besides, the IC50 on canine TRPM8 is 4 nM and 6.9 nM.

With `Cc1c(C(C)(C)C)nn(C)c1-c1nc2cc(-c3c(F)cccc3OC(F)(F)F)cc(Cl)c2[nH]1` [Compound 138, 2-(5-tert-Butyl-2,4-dimethyl-2H-pyrazol-3-yl)-7-chloro-5-(2-fluoro-6-trifluoromethoxy-phenyl)-1H-benzimidazole hydrochloride], the inhibition at 0.2 µM at canine TRPM8 (setting [3]) was 99%. The IC50 at canine TRPM8 was 7.7 nM and 6.8 nM.

`Cn1nc2c(c1-c1nc3cc(-c4ccccc4F)ccc3[nH]1)CCC2(C)C` [Compound 131]: the inhibition at 0.2 µM at canine TRPM8 (setting [3]) was determined as 100%. Further, the IC50 at canine TRPM8 is 42 nM.

With `Cc1c(C(C)(C)C)noc1-c1nc2cc(-c3c(F)cccc3F)ccc2[nH]1` [Compound 109, 2-(3-tert-Butyl-4-methyl-isoxazol-5-yl)-5-(2,6-difluoro-phenyl)-1H-benzimidazole hydrochloride], the IC50 at canine TRPM8 stood at 13.9 nM.

`Cc1oc(-c2nc3cc(-c4ccccc4Cl)cc(C(F)(F)F)c3[nH]2)nc1C(C)(C)C` [Compound 196, 2-(4-tert-Butyl-5-methyl-oxazol-2-yl)-5-(2-chloro-phenyl)-7-trifluoromethyl-1H-benzimidazole hydrochloride]: on canine TRPM8 (setting [3]), the inhibition at 0.2 µM came to 39%.

Consider `CC(C)(C)c1nnc(-c2nc3cc(-c4ccccc4C(F)(F)F)cc(C(F)(F)F)c3[nH]2)o1` [Compound 190, 2-(5-tert-Butyl-[1,3,4]oxadiazol-2-yl)-7-trifluoromethyl-5-(2-trifluoromethyl-phenyl)-1H-benzimidazole sodium salt], for which the IC50 at canine TRPM8 was determined as 30 nM.

Take `CC(C)(C)c1cc(-c2nc3cc(-c4ccccc4Cl)cc(C(F)(F)F)c3[nH]2)on1` [Compound 141, 2-(3-tert-Butyl-isoxazol-5-yl)-5-(2-chloro-phenyl)-7-trifluoromethyl-1H-benzimidazole hydrochloride]: the inhibition at 0.2 µM on canine TRPM8 (setting [3]) was 99%. Further, the IC50 at canine TRPM8 was 5.4 nM and 8.7 nM.

Take `Cn1nc2c(c1-c1nc3cc(-c4ccccc4OC(F)(F)F)ccc3[nH]1)CCCC2(C)C` [Compound 31, 2,7,7-Trimethyl-3-[5-(2-trifluoromethoxyphenyl)-1H-benzimidazol-2-yl]-4,5,6,7-tetrahydro-2H-indazole sodium salt]: on canine TRPM8, the IC50 worked out at 84 nM.

Consider `CC(C)(C)c1cc(-c2nc3cc(-c4ccccc4F)ccc3[nH]2)on1` [Compound 66, 2-(3-tert-Butyl-isoxazol-5-yl)-5-(2-fluoro-phenyl)-1H-benzimidazole trifluoroacetic acid salt], for which, on canine TRPM8, the IC50 was 24 nM and 35.7 nM.

For the molecule `Cl.Cn1nc(C(C)(C)C)c(C#N)c1-c1nc2cc(-c3ccccc3Cl)cc(C(F)(F)F)c2[nH]1` [Compound 148, 3-tert-Butyl-5-[5-(2-chloro-phenyl)-7-trifluoromethyl-1H-benzimidazol-2-yl]-1-methyl-1H-pyrazole-4-carbonitrile hydrochloride], the “% Inh (%) @0.2 μM, in vitro TRP M8 Activity” value on canine TRPM8 (0.2 μM test compound, individually measured values, hydrochloride, 0.2 µM) was 99%. For the same molecule, the inhibition at 0.2 µM on canine TRPM8 (setting [3]) turned out to be 100%. Also, the IC50 on canine TRPM8 was 5 nM and 4.1 nM and 2.9 nM.

For `Cc1nc(C(C)(C)C)oc1-c1nc2cc(-c3ccccc3)cc(Cl)c2[nH]1` [Compound 180, 2-(2-tert-Butyl-4-methyl-oxazol-5-yl)-7-chloro-5-phenyl-1H-benzimidazole hydrochloride], the inhibition at 0.2 µM at canine TRPM8 (setting [3]) was found to be 6%.
